Source: patent publication EP4818152A1, “METHOD FOR PREPARING L-SERINE HYDROCHLORIDE AND USE THEREOF” (Astrogen, Inc., priority 2023, dated 2025)
Where two headings read alike, the source gives them in different places.

Experiments:
[1] = Mouse PK experiment (serum levels by LC-MS/MS)
Procedure: (§1) -6, -4, -2, and 0 hours before drug administration and 0.25, 0.5, 1, 3, 6, 9, and 12 hours after drug administration, the experimental mice were placed in a restrainer, a 2 mm incision was made at the tip of the tail, and about 40-50 µL of blood was collected into a heparin capillary tube while massaging the tail. […] Blood samples were transferred to 2 mL tubes and centrifuged at 2000× g for 10 minutes to separate the serum, which was then transferred to new tubes at about 20-25 µL per sample. […] The internal standard D, L-serine-2,3,3-d3 stock solution was prepared at a concentration of 60 µg/mL for preparing a calibration curve and at 2 µg/mL for spiking into samples. To prepare the reagents required for creating the calibration curve, 10 µL of the diluted stock solution and 10 µL of the internal standard solution (D, L-serine-2,3,3-d3, 60 µg/mL) were spiked into 980 µL of a solvent with a ratio of acetonitrile/water/trifluoroacetic acid (v/v/v, 96/5/0.5). […] The mixed solution was centrifuged at 16,000 g for 10 minutes, and the supernatant was separated and injected into LC-MS/MS at a volume of 5 µL. The ultra-high-performance liquid chromatography system consisted of a pump (LC-40D X3), an autosampler (SIL-40CX3), a column oven (CTO-40C), and a system controller (SCL-40) from Shimadzu (Duisburg, Germany), and the mass spectrometer used was a QTRQP LC-MS/MS 6500+ from SCIEX (Framingham, MA, USA). The column used was a CROWNPAK CR-I (+) [3.0 x 150 mm, 5 micron] from DAICEL (Osaka, Tokyo), and the column oven was set to 30°C. Acetonitrile/water/trifluoroacetic acid (v/v/v, 96/5/0.5) was used as the mobile phase, and the elution was performed under isocratic conditions. Mass spectrometry detection was performed under multiple reaction monitoring (MRM) conditions in ESI+ mode. MS/MS parameters were ion spray voltage, 5500 V; temperature 500°C; curtain gas, 30 psi; ion source gas (GS1), 50 psi, ion source gas (GS2), 50 psi. The declustering potential (DP), entrance potential (EP), collision energy (CE), and collision cell exit potential (CXP) values under MRM conditions were optimized in manual tuning mode using a syringe infusion pump, and mass spectrometric analysis was performed. Data acquisition and processing were performed using AB SCIEX Analyst software.

[2] = Storage stability in aqueous solution (discoloration, precipitation); assay type: physicochemical; conditions: stored in an aqueous solution at room temperature for one month
[3] = tested on: valproic acid (VPA)-induced autism model mice; assay: Three-chamber test of social interaction in VPA-induced autism model mice; assay type: in vivo; conditions: oral, 14 days from day 21 after birth; 3-chamber test 35 days after birth; versus vehicle-treated VPA mice
Procedure: In order to perform a behavioral experiment on valproic acid (VPA)-induced autism model mice using L-serine hydrochloride prepared in Example 3, 600 mg/kg of VPA dissolved in 0.9% NaCl saline was administered subcutaneously to pregnant dams to obtain 14 VPA-induced autism model mice. Meanwhile, 8 pups born to the dams that were not administered VPA were used as a control group. […] The drug was orally administered at a dose of 10 mL/kg per day based on the individual's body weight, which is equivalent, on a molar basis, to administering 400 mg/kg of L-serine hydrochloride to humans.
Thirty-five days after birth, the mice's social interaction abilities were tested using a three-chamber test. Social novelty was evaluated based on the interaction time during an initial encounter with a novel mouse compared with a re-encounter with a familiar mouse. Sociability reflects the degree of social interaction between a mouse and another mouse, and was measured by evaluating the interaction time that the mouse spent interacting with another mouse located in one side of an empty chmber.

in vivo = conditions: mouse
Procedure: as §1

[4] = mouse, in vivo
Procedure: as §1

SMILES	Cl/F ([1]; mouse PK, serum)	AUC(0-t) ([1]; mouse, in vivo) [µg·h/mL]	Cmax ([1]; mouse, in vivo) [µg/mL]	Tmax ([1]; mouse, in vivo) [min]	half-life ([1]; mouse, in vivo) [min]	discoloration or precipitation [2]	sociability [3]	social novelty [3]	AUC(0-t) (in vivo) [µg·h/mL]	Cmax (in vivo) [µg/mL]	Tmax (in vivo) [min]	half-life (in vivo) [min]	Cl/F [4]
Cl.N[C@@H](CO)C(=O)O [L-Serine Hydrochloride (Example 3), L-serine hydrochloride]	3.77±0.94 (mg/kg)/(µg/mL)/h	141 ± 37.4	77.7 ± 8.49	37.2	108 ± 16.2	no discoloration or precipitation occurred	statistically significant improvements	statistically significant improvements	–	–	–	–	–
N[C@@H](CO)C(=O)O [L-Serine, L-serine]	–	–	–	–	–	–	–	–	81.5 ± 22.5	67.5 ± 25.9	15	72.6 ± 28.8	4.92±1.20 (mg/kg)/(µg/mL)/h
